{"source": "patent US10238689B2", "about": "“Methods for combating bacterial infections by killing persister cells with mitomycin C and/or cisplatin” (THE PENN STATE RESEARCH FOUNDATION, priority 2015, dated 2019)", "key": {"[1]": {"test_system": "E. coli O157:H7 (EHEC)", "test": "Planktonic antibiotic killing assay", "type": "cell-based, Escherichia coli", "conditions": "MMC 10 μg/mL, 3 h; for cell viability after treatment: rich medium (buffered LB)", "protocol": "(§1) In order to obtain exponential and mid-stationary phase cultures in LB, buffered LB or TSB, overnight cultures (16 h) were diluted 1:1000 in fresh medium and grown to the desired turbidity (i.e., a turbidity below 2 at 600 nm for exponential phase and a turbidity of 3 to 4 at 600 nm for mid-stationary phase). Late-stationary phase cultures in LB or buffered LB were obtained by growing overnight cultures (16 h). In order to obtain exponential and late-stationary phase cultures in M9-glucose, overnight cultures (16 h) were washed diluted 1:1000 in M9-glucose and grown for the desired period of time (i.e., a turbidity of 0.4 at 600 nm for exponential phase and 24 h of growth for late-stationary phase). Anaerobically grown cultures were maintained with ˜20% CO2, ˜79% N2, and ˜1% H2. In order to obtain rifampicin-induced persister cultures in buffered LB, overnight cultures (16 h) were diluted 1:1000 in fresh medium and grown to a turbidity of 0.8 at 600 nm. Cultures were exposed to rifampicin (100 μg/mL) for 30 min, centrifuged, and resuspended in fresh medium to remove the rifampicin."}, "[2]": {"test_system": "E. coli K-12", "test": "Planktonic antibiotic killing assay", "type": "cell-based, Escherichia coli", "conditions": "for fold more effective compared to ciprofloxacin: MMC 10 μg/mL vs ciprofloxacin 5 μg/mL", "protocol": "as §1"}, "[3]": {"test_system": "EHEC biofilm cultures", "conditions": "M9-glucose, 24 h treatment, MMC 10 μg/mL, ciprofloxacin 5 μg/mL"}, "[4]": {"test_system": "gDNA (rrsG and murB) of E. coli K-12 BW25113/pCA24N", "test": "qPCR of gDNA crosslinking in cells (in vivo)", "type": "cell-based, Escherichia coli", "conditions": "MMC 100 μg/mL 1 h", "protocol": "Overnight cultures (16 h) of E. coli K-12 BW25113/pCA24N grown in LB were diluted 1:1000 in buffered LB and grown to the desired turbidity. For exponential phase cells (i.e., non-persisters), cultures were grown to a turbidity of 2.0 at 600 nm. For rifampicin-induced persisters, cultures were grown to a turbidity of 0.8 at 600 nm, exposed to rifampicin (100 μg/mL) for 30 min, centrifuged, and resuspended in fresh medium to remove the rifampicin. Non-persister and rifampicin-induced persister cultures were treated with MMC (100 μg/mL) for 1 h. gDNA was extracted, using an UltraClean Microbial DNA Isolation Kit (MO BIO Laboratories, Carlsbad, Calif., USA), from samples taken before and after MMC treatment and 100 ng of DNA was used for qPCR of rrsG and murB using the GoTaq qPCR Master Mix (Promega, Madison, Wis., USA) and the StepOne Real-Time PCR System (Applied Biosystems, Foster City, Calif., USA) (primers are shown in Table 2). As a positive control, 3 μg of gDNA from BW25113 non-persisters was crosslinked in vitro with 500 μg/mL (1.5 mM) MMC in 0.2 mM EDTA, 50 mM NaCl, and 5 mM Tris (pH=7.6) with Na2S2O4 added six times at 10 min intervals to reach a final concentration of 2.25 mM (1.5× molarity of MMC). The in vitro crosslinking reaction was performed anaerobically on ice and the reaction was stopped by exposure to air."}, "[5]": {"test_system": "S. aureus biofilm cultures", "test": "Biofilm antibiotic killing assay", "type": "cell-based, Staphylococcus aureus", "conditions": "minimal medium (modified M9-glucose), 24 h treatment, MMC 10 μg/mL, ciprofloxacin 5 μg/mL"}, "[6]": {"test_system": "EHEC infection", "type": "in vivo, Caenorhabditis elegans", "conditions": "MMC 10 μg/mL, ciprofloxacin 5 μg/mL, ampicillin 100 μg/mL, 6 h exposure; four replicates"}, "[7]": {"test_system": "E. coli K-12", "test": "Minimum inhibitory concentration (MIC) assay", "type": "cell-based, Escherichia coli", "conditions": "16 h, lack of turbidity", "protocol": "Minimum inhibitory concentration (MIC) assay. To determine the MICs of cisplatin for E. coli K-12, enterohemorrhagic E. coli (EHEC), S. aureus, and P. aeruginosa (PAO1 and PA14), freshly inoculated cultures (at least two independent cultures) in buffered LB (TSB for S. aureus) were incubated for 16 h with varying concentrations of cisplatin, and growth inhibition was assayed by the lack of turbidity."}, "[8]": {"test_system": "enterohemorrhagic E. coli (EHEC)", "test": "Persister cell assay of pathogens (stationary phase)", "type": "cell-based, Escherichia coli", "conditions": "stationary-phase cells, buffered LB; cisplatin 500 μg/mL, 5×MIC, 3 h", "protocol": "For the persister cell assay of the pathogens, stationary-phase cells were used. Cultures of EHEC, P. aeruginosa, and S. aureus were prepared by a 1:1000 dilution of overnight grown cultures (LB medium for EHEC and P. aeruginosa, TSB for S. aureus) into fresh buffered LB medium for EHEC, M9-glucose for P. aeruginosa, and TSB for S. aureus and re-growing the cells to a turbidity of 3 to 4 at 600 nm for EHEC and S. aureus and growing for 24 h for P. aeruginosa. Stationary-phase cultures of EHEC (buffered LB medium), P. aeruginosa (M9-glucose medium), and S. aureus (TSB medium) were then treated with cisplatin (500 μg/mL for EHEC and S. aureus, 250 μg/mL for P. aeruginosa) for 3 h (250 mL flask, 250 rpm)."}, "[9]": {"test_system": "DNA", "conditions": "Eastman 1987; cited from earlier work"}}, "note": "Values joined by “and” are separate entries in the source; they are usually repeats but may differ in a detail not shown here. Identical values can stand only once. “Also recorded” adds a separate entry of the source.", "data": [{"compound": "CO[C@@]12[C@H](COC(N)=O)C3=C(C(=O)C(C)=C(N)C3=O)N1C[C@@H]1N[C@@H]12", "note": "[MMC, mitomycin C]", "values": [{"measurement": "cell viability after treatment", "setting": "[1]; exponential phase", "value": "eradicating"}, {"measurement": "cells survived", "setting": "[1]; late-stationary phase, M9-glucose, ciprofloxacin 5 μg/mL", "value": "eradicated"}, {"measurement": "cell viability after treatment", "setting": "[1]; mid-stationary phase", "value": "eradicating"}, {"measurement": "survival", "setting": "[2]; anaerobic, late-stationary phase cells in rich medium (LB)", "value": "eradication beyond the limit of detection; also recorded: eradicated"}, {"measurement": "susceptibility of exponential-phase cultures", "setting": "[2]; exponential phase, M9-glucose", "value": "similarly susceptible"}, {"measurement": "fold more effective compared to ciprofloxacin", "setting": "[2]; exponentially-growing cells, buffered LB, 3 h", "value": "2,300 fold"}, {"measurement": "time course of killing (death curve)", "setting": "[2]; late-stationary phase culture, buffered LB", "value": "does not show the bi-phasic death curve"}, {"measurement": "persistence (surviving population)", "setting": "[2]; late-stationary phase, M9-glucose, MMC 10, ciprofloxacin 5, gentamicin 10 μg/mL, 3 h", "value": "eradication beyond the limit of detection; also recorded: eradicated cells"}, {"measurement": "fold more effective compared to ciprofloxacin", "setting": "[2]; mid-stationary-phase cells, buffered LB, 3 h", "value": "150,000 fold"}, {"measurement": "effectiveness against rifampicin-induced persister cells", "setting": "[2]; rifampicin pretreatment 100 μg/mL 30 min, buffered LB, MMC 10 μg/mL, ciprofloxacin 5 μg/mL, 3 h", "value": "highly effective"}, {"measurement": "cells surviving", "setting": "[3]", "value": "eradicated"}, {"measurement": "Fold Change in amplifiable DNA", "setting": "[4]; Non-persisters, murB", "value": "−5.13±0.14", "unit": "fold"}, {"measurement": "Fold Change in amplifiable DNA", "setting": "[4]; Non-persisters, rrsG", "value": "−5.95±0.20", "unit": "fold"}, {"measurement": "Fold Change in amplifiable DNA", "setting": "[4]; Persisters, murB", "value": "−5.99±0.50", "unit": "fold"}, {"measurement": "Fold Change in amplifiable DNA", "setting": "[4]; Persisters, rrsG", "value": "−5.01±0.51", "unit": "fold"}, {"measurement": "survival", "setting": "[5]", "value": "eradicating cells beyond the limit of detection"}, {"measurement": "survival of the EHEC-infected worms", "setting": "[6]", "value": "higher than with either ciprofloxacin or ampicillin"}]}, {"compound": "N.N.[Cl][Pt][Cl]", "note": "[cisplatin, cis-diamminodichloroplatinum(II)]", "values": [{"measurement": "MIC", "setting": "[7]", "value": 100, "unit": "µg/mL"}, {"measurement": "cell viability after treatment", "setting": "[8]", "value": "eradicated"}, {"measurement": "intrastrand crosslinks at AG sequences", "setting": "[9]", "value": "17-19% and 17 to 19%"}, {"measurement": "intrastrand crosslinks at GNG sequences", "setting": "[9]", "value": "< 8", "unit": "%"}, {"measurement": "intrastrand crosslinks at adjacent guanines", "setting": "[9]", "value": "54-65% and 54 to 65%"}]}]}
